Experimental data taken from patent publication US20070004660A1, “Synergistic Modulation of Flt3 Kinase Using Alkylquinolines and Alkylquinazolines” (priority 2005, published 2007).

Each molecule was assayed against T1, isolated kinase domain of the human FLT3 receptor (a.a. 571-993) (Homo sapiens, UniProt P36888) (assay: FLT3 fluorescence polarization kinase assay). Conditions: 150 uM ATP; uncertainty ±10%.
T1 construct: human FLT3 receptor (a.a. 571-993)
T1 sequence (P36888 571-993): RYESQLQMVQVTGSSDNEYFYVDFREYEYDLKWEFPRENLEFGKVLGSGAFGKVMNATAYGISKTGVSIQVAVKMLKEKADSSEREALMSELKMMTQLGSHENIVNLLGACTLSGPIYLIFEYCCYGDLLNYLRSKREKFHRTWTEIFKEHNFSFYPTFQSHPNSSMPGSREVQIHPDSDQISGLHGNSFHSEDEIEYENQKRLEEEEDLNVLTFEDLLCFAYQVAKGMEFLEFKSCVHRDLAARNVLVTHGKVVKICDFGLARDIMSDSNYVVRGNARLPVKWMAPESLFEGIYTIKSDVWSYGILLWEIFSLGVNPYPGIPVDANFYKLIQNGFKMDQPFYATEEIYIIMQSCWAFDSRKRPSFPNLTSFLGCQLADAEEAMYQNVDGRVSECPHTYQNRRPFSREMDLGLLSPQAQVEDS
Type: biochemical

Row | SMILES | IC50 [µM]
1 | O=C1CCCN1CCCOc1ccc2c(C3CCN(C(=O)Nc4ccc(N5CCOCC5)nc4)CC3)ncnc2c1 [Example 72, 4-{7-[3-(2-Oxo-pyrrolidin-1-yl)-propoxy]-quinazolin-4-yl}-piperidine-1-carboxylic acid (6-morpholin-4-yl-pyridin-3-yl)-amide] | 0.027
2 | CN1CCN(CCCOc2ccc3c(C4CCN(C(=O)Nc5ccc(N6CCOCC6)cc5)CC4)ncnc3c2)CC1 [Example 73, 4-{7-[3-(4-Methyl-piperazin-1-yl)-propoxy]-quinazolin-4-yl}-piperidine-1-carboxylic acid (4-morpholin-4-yl-phenyl)-amide] | 0.003
3 | O=C1CCCN1CCOc1ccc2c(C3CCN(C(=O)Nc4ccc(N5CCCC5)cc4)CC3)ncnc2c1 [Example 74, 4-{7-[2-(2-Oxo-pyrrolidin-1-yl)-ethoxy]-quinazolin-4-yl}-piperidine-1-carboxylic acid (4-pyrrolidin-1-yl-phenyl)-amide] | 0.001
4 | O=C(Nc1ccc(N2CCOCC2)cc1)N1CCC(c2ncnc3cc(OCCCN4CCCCC4)ccc23)CC1 [Example 75] | 0.049
5 | CC(C)Oc1ccc(NC(=O)N2CCC(c3ncnc4ccc(OCCCN5CCN(C)CC5)cc34)CC2)cc1 [Example 76, 4-{6-[3-(4-Methyl-piperazin-1-yl)-propoxy]-quinazolin-4-yl}-piperidine-1-carboxylic acid (4-isopropoxy-phenyl)-amide] | 0.251
6 | O=C(Nc1ccc(N2CCOCC2)cc1)N1CCC(c2ncnc3cc(OCCCO)ccc23)CC1 [Example 77, 4-[7-(3-Hydroxy-propoxy)-quinazolin-4-yl]-piperidine-1-carboxylic acid (4-morpholin-4-yl-phenyl)-amide] | 0.103
7 | COCCCOc1ccc2c(C3CCN(C(=O)Nc4ccc(N5CCOCC5)cc4)CC3)ncnc2c1 [Example 78, 4-[7-(3-Methoxy-propoxy)-quinazolin-4-yl]-piperidine-1-carboxylic acid (4-morpholin-4-yl-phenyl)-amide] | 0.225
8 | CC(C)Oc1ccc(NC(=O)N2CCC(c3ncnc4cc(OCCN5CCOC5=O)ccc34)CC2)cc1 [Example 79, 4-{7-[2-(2-Oxo-oxazolidin-3-yl)-ethoxy]-quinazolin-4-yl}-piperidine-1-carboxylic acid (4-isopropoxy-phenyl)-amide] | 0.058
9 | CN1CCN(CCCOc2ccc3c(C4CCN(C(=O)Nc5ccc(N6CCOCC6)nc5)CC4)ncnc3c2)CC1 [Example 80, 4-{7-[3-(4-Methyl-piperazin-1-yl)-propoxy]-quinazolin-4-yl}-piperidine-1-carboxylic acid (6-morpholin-4-yl-pyridin-3-yl)-amide] | 0.004
10 | CN1CCN(CCCOc2ccc3c(C4CCN(C(=O)Nc5ccc(N6CCOCC6)c(F)c5)CC4)ncnc3c2)CC1 [Example 81, 4-{7-[3-(4-Methyl-piperazin-1-yl)-propoxy]-quinazolin-4-yl}-piperidine-1-carboxylic acid (3-fluoro-4-morpholin-4-yl-phenyl)-amide] | 0.007
11 | CN1CCN(CCCOc2ccc3c(C4CCN(C(=O)Nc5ccc(OC6CCCC6)nc5)CC4)ncnc3c2)CC1 [Example 82, 4-{7-[3-(4-Methyl-piperazin-1-yl)-propoxy]-quinazolin-4-yl}-piperidine-1-carboxylic acid (6-cyclopentyloxy-pyridin-3-yl)-amide] | 0.001
12 | O=C1CCCN1CCOc1ccc2c(C3CCN(C(=O)Nc4ccc(N5CCOCC5)nc4)CC3)ncnc2c1 [Example 83, 4-{7-[2-(2-Oxo-pyrrolidin-1-yl)-ethoxy]-quinazolin-4-yl}-piperidine-1-carboxylic acid (6-morpholin-4-yl-pyridin-3-yl)-amide] | 0.02

Results, then the molecule that gave them:

Row | IC50 [µM] | SMILES
13 | 0.041 | O=C1CCCN1CCOc1ccc2c(C3CCN(C(=O)Nc4cnc(N5CCCC5)nc4)CC3)ncnc2c1 [Example 84, 4-{7-[2-(2-Oxo-pyrrolidin-1-yl)-ethoxy]-quinazolin-4-yl}-piperidine-1-carboxylic acid (2-pyrrolidin-1-yl-pyrimidin-5-yl)-amide]
14 | 0.027 | O=C1CCCN1CCOc1ccc2c(C3CCN(C(=O)Nc4ccc(N5CCOCC5)cc4)CC3)ncnc2c1 [Example 85, 4-{7-[2-(2-Oxo-pyrrolidin-1-yl)-ethoxy]-quinazolin-4-yl}-piperidine-1-carboxylic acid (4-morpholin-4-yl-phenyl)-amide]
15 | 0.001 | CS(=O)(=O)NCCCOc1ccc2c(C3CCN(C(=O)Nc4ccc(N5CCCC5)nc4)CC3)ncnc2c1 [Example 86, 4-[7-(3-Methanesulfonylamino-propoxy)-quinazolin-4-yl]-piperidine-1-carboxylic acid (6-pyrrolidin-1-yl-pyridin-3-yl)-amide]
16 | 0.032 | CS(=O)(=O)NCCCOc1ccc2c(C3CCN(C(=O)Nc4ccc(N5CCOCC5)nc4)CC3)ncnc2c1 [Example 87, 4-[7-(3-Methanesulfonylamino-propoxy)-quinazolin-4-yl]-piperidine-1-carboxylic acid (6-morpholin-4-yl-pyridin-3-yl)-amide]
17 | 0.002 | CS(=O)(=O)NCCCOc1ccc2c(C3CCN(C(=O)Nc4ccc(OC5CCCC5)nc4)CC3)ncnc2c1 [Example 88, 4-[7-(3-Methanesulfonylamino-propoxy)-quinazolin-4-yl]-piperidine-1-carboxylic acid (6-cyclopentyloxy-pyridin-3-yl)-amide]
18 | 0.002 | O=C1CCCN1CCCOc1ccc2c(C3CCN(C(=O)Nc4ccc(N5CCCC5)nc4)CC3)ncnc2c1 [Example 89, 4-{7-[3-(2-Oxo-pyrrolidin-1-yl)-propoxy]-quinazolin-4-yl}-piperidine-1-carboxylic acid (6-pyrrolidin-1-yl-pyridin-3-yl)-amide]
19 | 0.073 | O=C1CCCN1CCCOc1ccc2c(C3CCN(C(=O)Nc4cnc(N5CCCC5)nc4)CC3)ncnc2c1 [Example 90, 4-{7-[3-(2-Oxo-pyrrolidin-1-yl)-propoxy]-quinazolin-4-yl}-piperidine-1-carboxylic acid (2-pyrrolidin-1-yl-pyrimidin-5-yl)-amide]
20 | 0.003 | O=C(Nc1ccc(N2CCOCC2)nc1)N1CCC(c2ncnc3cc(OCCN4CCOC4=O)ccc23)CC1 [Example 91, 4-{7-[2-(2-Oxo-oxazolidin-3-yl)-ethoxy]-quinazolin-4-yl}-piperidine-1-carboxylic acid (6-morpholin-4-yl-pyridin-3-yl)-amide]
21 | 0.0002 | O=C(Nc1ccc(N2CCCC2)nc1)N1CCC(c2ncnc3cc(OCCN4CCOC4=O)ccc23)CC1 [Example 92, 4-{7-[2-(2-Oxo-oxazolidin-3-yl)-ethoxy]-quinazolin-4-yl}-piperidine-1-carboxylic acid (6-pyrrolidin-1-yl-pyridin-3-yl)-amide]
22 | 0.0002 | CC(C)Oc1ccc(NC(=O)N2CCC(c3ncnc4cc(OCC5CCN(C)CC5)ccc34)CC2)cc1 [Example 93, 4-[7-(1-Methyl-piperidin-4-ylmethoxy)-quinazolin-4-yl]-piperidine-1-carboxylic acid (4-isopropoxy-phenyl)-amide]
23 | 0.001 | CN1CCC(COc2ccc3c(C4CCN(C(=O)Nc5ccc(N6CCOCC6)cc5)CC4)ncnc3c2)CC1 [Example 94, 4-[7-(1-Methyl-piperidin-4-ylmethoxy)-quinazolin-4-yl]-piperidine-1-carboxylic acid (4-morpholin-4-yl-phenyl)-amide]
24 | 0.008 | O=C(Nc1ccc(N2CCCC2)nc1)N1CCC(c2ncnc3cc(OCCN4CCOCC4)ccc23)CC1 [Example 95, 4-[7-(2-Morpholin-4-yl-ethoxy)-quinazolin-4-yl]-piperidine-1-carboxylic acid (6-pyrrolidin-1-yl-pyridin-3-yl)-amide]
25 | 0.036 | O=C(Nc1ccc(N2CCOCC2)cc1)N1CCC(c2ncnc3cc(OCCN4CCOCC4)ccc23)CC1 [Example 96, 4-[7-(2-Morpholin-4-yl-ethoxy)-quinazolin-4-yl]-piperidine-1-carboxylic acid (4-morpholin-4-yl-phenyl)-amide]
26 | 0.028 | CC(=O)N1CCN(CCOc2ccc3c(C4CCN(C(=O)Nc5ccc(N6CCOCC6)cc5)CC4)ncnc3c2)CC1 [Example 97, 4-{7-[2-(4-Acetyl-piperazin-1-yl)-ethoxy]-quinazolin-4-yl}-piperidine-1-carboxylic acid (4-morpholin-4-yl-phenyl)-amide]
27 | 0.027 | O=C(Nc1ccc(N2CCOCC2)cc1)N1CCC(c2ncnc3cc(OCCC4CCCCN4)ccc23)CC1 (stereo not drawn) [Example 98, 4-[7-(2-Piperidin-2-yl-ethoxy)-quinazolin-4-yl]-piperidine-1-carboxylic acid (4-morpholin-4-yl-phenyl)-amide]
28 | 0.001 | CN1CCC(COc2ccc3c(C4CCN(C(=O)Nc5ccc(N6CCCC6)nc5)CC4)ncnc3c2)CC1 [Example 99, 4-[7-(1-Methyl-piperidin-4-ylmethoxy)-quinazolin-4-yl]-piperidine-1-carboxylic acid (6-pyrrolidin-1-yl-pyridin-3-yl)-amide]
29 | 0.08 | CC(C)Oc1ccc(NC(=O)N2CCC(c3ncnc4cc(N(C)C)ccc34)CC2)cc1 [Example 100, 4-(7-Dimethylamino-quinazolin-4-yl)-piperidine-1-carboxylic acid (4-isopropoxy-phenyl)-amide]
30 | 0.0008 | CC(C)Oc1ccc(NC(=O)N2CCC(c3ncnc4ccc(OCCCN5CCCC5=O)cc34)CC2)cc1 [Example 101, 4-{6-[3-(2-Oxo-pyrrolidin-1-yl)-propoxy]-quinazolin-4-yl}-piperidine-1-carboxylic acid (4-isopropoxy-phenyl)-amide]
